#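 How tested: cells in 96-well plates exposed to compound for 48 hours at five concentrations. TGI denotes the concentration required for complete inhibition of growth.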
# Experiments:
# Test in all cases: NCI anticancer screen, dose series, 48 h
# HOP-92 NSCLC = system: HOP-92 NSCLC
# OVCAR-5 ovarian = system: OVCAR-5 ovarian
# SF-539 CNS = system: SF-539 CNS
# HCC-2998 colon = system: HCC-2998 colon
# NCI-H23 lung = system: NCI-H23 lung
# COLO 205 colon = system: COLO 205 colon
# NCI-H226 lung = system: NCI-H226 lung
# SNB-19 CNS = system: SNB-19 CNS
# BT-549 breast = system: BT-549 breast
# SF-268 CNS = system: SF-268 CNS
# A549 NSCLC = system: A549 NSCLC
# UACC-62 melanoma = system: UACC-62 melanoma
# A498 renal = system: A498 renal
# NCI-H522 lung = system: NCI-H522 lung
# EKVX NSCLC = system: EKVX NSCLC
# CCRF-CEM leukemia = system: CCRF-CEM leukemia
# UO-31 renal = system: UO-31 renal
# PC-3 prostate = system: PC-3 prostate
# MDA-N = system: MDA-N
# CAKI-1 renal = system: CAKI-1 renal
# M14 melanoma = system: M14 melanoma
# SF-295 CNS = system: SF-295 CNS
# HT29 colon = system: HT29 colon
# SR leukemia = system: SR leukemia
# HCT-116 colon = system: HCT-116 colon
# K-562 leukemia = system: K-562 leukemia
# IGROV1 ovarian = system: IGROV1 ovarian
# NCI-H460 lung = system: NCI-H460 lung
# UACC-257 melanoma = system: UACC-257 melanoma
# SK-OV-3 ovarian = system: SK-OV-3 ovarian
# OVCAR-3 ovarian = system: OVCAR-3 ovarian
# HCT-15 colon = system: HCT-15 colon
# SW-620 colon = system: SW-620 colon
# ACHN renal = system: ACHN renal
# 786-0 renal = system: 786-0 renal
# DU-145 prostate = system: DU-145 prostate
# SNB-75 CNS = system: SNB-75 CNS
# SN12C renal = system: SN12C renal
# SK-MEL-28 melanoma = system: SK-MEL-28 melanoma
# NCI/ADR-RES ovarian = system: NCI/ADR-RES ovarian
# MDA-MB-231 breast = system: MDA-MB-231 breast
# RXF 393 renal = system: RXF 393 renal
# MCF7 breast = system: MCF7 breast
# HS 578T breast = system: HS 578T breast
# MALME-3M melanoma = system: MALME-3M melanoma
# OVCAR-4 ovarian = system: OVCAR-4 ovarian
# TK-10 renal = system: TK-10 renal
# HOP-62 NSCLC = system: HOP-62 NSCLC
# MDA-MB-435 = system: MDA-MB-435
# SK-MEL-5 melanoma = system: SK-MEL-5 melanoma
# LOX IMVI melanoma = system: LOX IMVI melanoma
# OVCAR-8 ovarian = system: OVCAR-8 ovarian
# SK-MEL-2 melanoma = system: SK-MEL-2 melanoma
# U251 CNS = system: U251 CNS
# HL-60(TB) leukemia = system: HL-60(TB) leukemia
# RPMI-8226 leukemia = system: RPMI-8226 leukemia
# KM12 colon = system: KM12 colon
# MOLT-4 leukemia = system: MOLT-4 leukemia
smiles,measurement,setting,value
Cc1ccc(-n2cc(-c3ccc(Cl)cc3)c3c2N=CN2NC(c4cccs4)=NC32)cc1 (configuration not stated),TGI,HOP-92 NSCLC,24 µM
same,TGI,OVCAR-5 ovarian,51 µM
same,TGI,SF-539 CNS,45.2 µM
same,TGI,HCC-2998 colon,> 100 µM
same,TGI,NCI-H23 lung,52.3 µM
same,TGI,COLO 205 colon,28.7 µM
same,TGI,NCI-H226 lung,80.7 µM
same,TGI,SNB-19 CNS,51.1 µM
same,TGI,BT-549 breast,53.7 µM
same,TGI,SF-268 CNS,69.5 µM
same,TGI,A549 NSCLC,> 100 µM
same,TGI,UACC-62 melanoma,68.6 µM
same,TGI,A498 renal,35.9 µM
same,TGI,NCI-H522 lung,> 100 µM
same,TGI,EKVX NSCLC,57.1 µM
same,TGI,CCRF-CEM leukemia,42.4 µM
same,TGI,UO-31 renal,27.7 µM
same,TGI,PC-3 prostate,> 100 µM
same,TGI,MDA-N,> 100 µM
same,TGI,CAKI-1 renal,40.4 µM
same,TGI,M14 melanoma,> 100 µM
same,TGI,SF-295 CNS,25.2 µM
same,TGI,HT29 colon,> 100 µM
same,TGI,SR leukemia,> 100 µM
same,TGI,HCT-116 colon,22 µM
same,TGI,K-562 leukemia,> 100 µM
same,TGI,IGROV1 ovarian,34.7 µM
same,TGI,NCI-H460 lung,19.2 µM
same,TGI,UACC-257 melanoma,> 100 µM
same,TGI,SK-OV-3 ovarian,37.3 µM
same,TGI,OVCAR-3 ovarian,35 µM
same,TGI,HCT-15 colon,> 100 µM
same,TGI,SW-620 colon,> 100 µM
same,TGI,ACHN renal,19.2 µM
same,TGI,786-0 renal,15.5 µM
same,TGI,DU-145 prostate,> 100 µM
same,TGI,SNB-75 CNS,23.4 µM
same,TGI,SN12C renal,29 µM
same,TGI,SK-MEL-28 melanoma,> 100 µM
same,TGI,NCI/ADR-RES ovarian,40.9 µM
same,TGI,MDA-MB-231 breast,21.5 µM
same,TGI,RXF 393 renal,31.4 µM
same,TGI,MCF7 breast,> 100 µM
same,TGI,HS 578T breast,6.52 µM
same,TGI,MALME-3M melanoma,> 100 µM
same,TGI,OVCAR-4 ovarian,6.17 µM
same,TGI,TK-10 renal,27.9 µM
same,TGI,HOP-62 NSCLC,35.2 µM
same,TGI,MDA-MB-435,> 100 µM
same,TGI,SK-MEL-5 melanoma,> 100 µM
same,TGI,LOX IMVI melanoma,> 100 µM
same,TGI,OVCAR-8 ovarian,21 µM
same,TGI,SK-MEL-2 melanoma,33 µM
same,TGI,U251 CNS,18.1 µM
same,TGI,HL-60(TB) leukemia,45.1 µM
Cn1c(=O)sc2cc(C(=S)N3CCN(c4ccccc4)CC3)ccc21,TGI,OVCAR-5 ovarian,> 100 µM
same,TGI,SF-539 CNS,61.4 µM
same,TGI,RPMI-8226 leukemia,> 100 µM
same,TGI,NCI-H23 lung,> 100 µM
same,TGI,COLO 205 colon,> 100 µM
same,TGI,NCI-H226 lung,> 100 µM
same,TGI,SNB-19 CNS,> 100 µM
same,TGI,BT-549 breast,> 100 µM
same,TGI,SF-268 CNS,> 100 µM
same,TGI,UACC-62 melanoma,> 100 µM
same,TGI,A498 renal,> 100 µM
same,TGI,EKVX NSCLC,> 100 µM
same,TGI,CCRF-CEM leukemia,> 100 µM
same,TGI,PC-3 prostate,> 100 µM
same,TGI,MDA-N,> 100 µM
same,TGI,CAKI-1 renal,> 100 µM
same,TGI,M14 melanoma,> 100 µM
same,TGI,SF-295 CNS,53.9 µM
same,TGI,HT29 colon,> 100 µM
same,TGI,SR leukemia,> 100 µM
same,TGI,HCT-116 colon,> 100 µM
same,TGI,K-562 leukemia,> 100 µM
same,TGI,IGROV1 ovarian,> 100 µM
same,TGI,NCI-H460 lung,> 100 µM
same,TGI,UACC-257 melanoma,> 100 µM
same,TGI,SK-OV-3 ovarian,> 100 µM
same,TGI,KM12 colon,> 100 µM
same,TGI,OVCAR-3 ovarian,> 100 µM
same,TGI,HCT-15 colon,> 100 µM
same,TGI,SW-620 colon,> 100 µM
same,TGI,ACHN renal,> 100 µM
same,TGI,786-0 renal,> 100 µM
same,TGI,DU-145 prostate,> 100 µM
same,TGI,SNB-75 CNS,80.6 µM
same,TGI,SN12C renal,> 100 µM
same,TGI,SK-MEL-28 melanoma,> 100 µM
same,TGI,NCI/ADR-RES ovarian,> 100 µM
same,TGI,MDA-MB-231 breast,> 100 µM
same,TGI,RXF 393 renal,> 100 µM
same,TGI,MCF7 breast,> 100 µM
same,TGI,HS 578T breast,> 100 µM
same,TGI,MALME-3M melanoma,> 100 µM
same,TGI,TK-10 renal,> 100 µM
same,TGI,HOP-62 NSCLC,42.8 µM
same,TGI,MOLT-4 leukemia,> 100 µM
same,TGI,MDA-MB-435,> 100 µM
same,TGI,SK-MEL-5 melanoma,> 100 µM
same,TGI,LOX IMVI melanoma,> 100 µM
same,TGI,OVCAR-8 ovarian,> 100 µM
same,TGI,SK-MEL-2 melanoma,> 100 µM
same,TGI,U251 CNS,35.1 µM
same,TGI,HL-60(TB) leukemia,> 100 µM

# — PubChem BioAssay (NCI)
